Measurements reported in publication PMC8398714, “Synthesis and Evaluation of Biological Activities of Bis(spiropyrazolone)cyclopropanes: A Potential Application against Leishmaniasis” (Molecules, 2021).
Values joined by “and” are separate entries in the source; they are usually repeats but may differ in a detail not shown here. Identical values can stand only once.

Assays:
RKO = assay: MTS cell viability assay on RKO cells; type: cell-based; settings: Homo sapiens, 48 h; for inhibition at 100 µM: Dox 1 µM, mean ± SEM, NA = no activity, read-out: Percentage (%) of inhibition, RKO; for IC50: 15-150 µM, mean ± SEM of triplicates
Protocol: (§1) Five tumor human cancer cell lines—cerebral astrocytoma (D-384), grade IV prostatic adenocarcinoma (PC-3), mammary adenocarcinoma (MCF-7), human colon carcinoma (RKO) and lung carcinoma (A-549)—along with one immortalized hamster cell line (CHO K-1) were used. The cells PC-3, MCF-7 and RKO were cultured in RPMI-1640, D-384 on DMEM and CHO K-1 on HAM F-12 medium supplemented with 10% fetal bovine serum (FBS, Invitrogen, Karlsruhe, Germany), 1% antibiotic-antimitotic solution (100 units/mL penicillin G, 100 µg/mL streptomycin, and 0.25 µg/mL amphotericin B, Gibco, Grand Island, NY, USA), and 1% L-glutamine (2 mM, Gibco). The cells were incubated at 37 °C in a 5% CO2 atmosphere. The viable cells were counted using the trypan blue exclusion method in a hemocytometer.
(§2) The MTS (5-[3-(carboxymethoxy)phenyl]-3-(4,5-dimethyl-2-thiazolyl)-2-(4-sulfo- phenyl)-2H-tetrazolium inner salt) cell viability assay was used to assess the inhibitory effects of the extracts on the survival of human cancer cell lines. A total of 3–5 × 10^3 cells/well were seeded into 96-well plates and were allowed to adhere for 24 h. […] Each concentration/assay was performed three times. Dimethyl sulfoxide (DMSO) was used as a negative control at a final concentration of 0.1% v/v, and 1 µM Doxorubicin was used as a positive control. The cells were incubated with the treatments for 48 h, after which 20 µL MTS (5 mg/mL, Aqueous One Solution Reagent, Gibco) was added and further incubated for 4 h at 37 °C. The absorbance was measured at 570 nm. The data obtained with cells treated with DMSO were defined to represent 100% viability.

[1] = DPPH radical scavenging assay; settings: 30 min, 515 nm
Protocol: The stock solution of the compounds was prepared by dissolving 4 in dimethyl sulfoxide (DMSO) to a concentration of 4 mg/mL. The solution was diluted with methanol until a concentration of 400 µg/mL was obtained and then used immediately.
The experimental procedure was adapted from the literature. Briefly, 100 µL of a 0.2 mM methanol solution of DPPH (2, 2-diphenyl-1-picrylhydrazyl) radical were added to 100 µL of methanolic solutions of 4 prepared as serial two-fold dilutions from the stock solution in 96-well microfilter plates. Standards and edaravone were also prepared in the same concentrations. The mixture was incubated in dark at room temperature for 30 min and the absorbance was read at 515 nm on a Cytation 5 (BioTek) spectrophotometer.
The % DPPH scavenging activity was then calculated by using the following formula:(1) % DPPH scavenging = 100 × [(Asample+DPPH−Asample blank)/(ADPPH−Asolvent)]
The antioxidant activity of the compound was expressed as IC50, which is defined as the concentration that could scavenge 50% of the DPPH free radical. The IC50 values were calculated in GraphPad Prism 7.02 (GraphPad Software, Corp.) The results are given as a mean ± standard deviation (SD) of experiments done in triplicate.

CHO-K1 cells = type: cell-based, hamster
Protocol: Cells were mixed with 150 μL low-melting-point agarose 1% (LMP, Promega, Madison, WI, USA) and added to microscope slides previously prepared with normal-melting-point agarose 1% (NMP, Invitrogen, Carlsbad, CA, USA). A third LMP agarose layer (150 µL) was added. The slides were immersed in a cooled lysing solution (pH 10) with 10% DMSO, 1% Triton X-100 (Sigma Aldrich, Saint Louis, MO, USA), 2.5 M NaCl (Loba Chemie, Mumbai, India), 100 mM EDTA and 10 mM Tris (Invitrogen, Carlsbad, CA, USA) for 12 h at 4 °C. All steps after lysis were performed under darkness or yellow light to prevent additional DNA damage. The slides were immersed for 20 min in an electrophoresis buffer solution (pH 13) with NaOH 300 mM (Fisher Scientific, Waltham, MA, USA) and EDTA 1 mM (Invitrogen, Carlsbad, CA, USA) to allow for DNA unwinding. Electrophoresis was later performed at 25 V and 300 mA for 20 min. Slides were then sprayed with a neutralization buffer (pH 7.5) 0.4 M Tris (Sigma Aldrich, Saint Louis, MO, USA). Ethidium bromide (60 µL) was added to each slide, and a cover glass was placed on the gel. The DNA migration was analyzed using a ZEISS-Axioskop 2 plus microscope with fluorescence (40×) by scoring 100 cells per slide in duplicate. After that, the tail moment parameter was analyzed by a Comet Assay IV software (Perceptive Instruments Ltd., Bury St Edmunds, Suffolk, UK).

PC-3 = assay: MTS cell viability assay on PC-3 cells; type: cell-based; settings: Homo sapiens, 48 h; for inhibition at 100 µM: Dox 1 µM, mean ± SEM, NA = no activity, read-out: Percentage (%) of inhibition, PC-3; for IC50: 15-150 µM, mean ± SEM of triplicates
Protocol: as §1, §2

CHO-K1 = assay: MTS cell viability assay on immortalized CHO-K1 cells; type: cell-based, hamster; settings: 48 h, Dox 1 µM, mean ± SEM, NA = no activity, read-out: Percentage (%) of inhibition, CHO-K1
Protocol: as §1, §2

HeLa = assay: MTS cell viability assay on HeLa cells; type: cell-based; settings: Homo sapiens, 48 h, Dox 1 µM, mean ± SEM, NA = no activity, read-out: Percentage (%) of inhibition, HeLa
A-549 = assay: MTS cell viability assay on A-549 cells; type: cell-based; settings: Homo sapiens, A549; 100 µM, 48 h; Dox 1 µM; mean ± SEM; NA = no activity; read-out: Percentage (%) of inhibition, A-549
Protocol: as §1, §2

SMILES | inhibition at 100 µM (RKO) | IC50 [1] | Genotoxic effect in comet assay versus DMSO control (CHO-K1 cells) | inhibition at 100 µM (PC-3) | inhibition at 100 µM (CHO-K1) | inhibition at 100 µM (HeLa) | inhibition at 100 µM (A-549) | IC50 (RKO) | IC50 (PC-3)
CC1=NN(c2ccccc2)C(=O)[C@@]12C(c1ccccc1)[C@@]21C(=O)N(c2ccccc2)N=C1C (relative stereo) [4b, (5R*,6R*)-4,10-Dimethyl-2,8,11-triphenyl-2,3,8,9-tetraazadispiro[4.0.4.1]undeca-3,9-diene-1,7-dione] | 21.7 ± 2.37% | > 300 µM | did not show differences with respect to the control of DMSO | 17.6 ± 2.83% | 5.76 ± 3.08% | – | – | – | –
CC1=NN(c2ccccc2)C(=O)[C@@]12C(c1ccccc1[N+](=O)[O-])[C@@]21C(=O)N(c2ccccc2)N=C1C (relative stereo) [4c, (5R*,6R*)-11-(2-Nitrophenyl)-4,10-dimethyl-2,8-diphenyl-2,3,8,9-tetraazadispiro[4.0.4.1]undeca-3,9-diene-1,7-dione] | 37.3 ± 1.22% | > 300 µM | – | 11 ± 3.5% | 2.62 ± 2.2% | 24.8 ± 1.74% | 6.1 ± 0.86% | – | –
CC1=NN(c2ccccc2)C(=O)[C@@]12C(c1cccc([N+](=O)[O-])c1)[C@@]21C(=O)N(c2ccccc2)N=C1C (relative stereo) [4d, (5R*,6R*)-11-(3-Nitrophenyl)-4,10-dimethyl-2,8-diphenyl-2,3,8,9-tetraazadispiro[4.0.4.1]undeca-3,9-diene-1,7-dione] | 68.9 ± 1.72% | > 300 µM | most significant | 46.1 ± 1.91% | 4.4 ± 0.72% | 48.6 ± 4.91% | 13.6 ± 0.74% | 94 ± 4.09 µM | 90.9 ± 2.56 µM
COc1ccc(C2[C@@]3(C(=O)N(c4ccccc4)N=C3C)[C@]23C(=O)N(c2ccccc2)N=C3C)cc1 (relative stereo) [4e, (5R*,6R*)-11-(4-Methoxyphenyl)-4,10-dimethyl-2,8-diphenyl-2,3,8,9-tetraazadispiro[4.0.4.1]undeca-3,9-diene-1,7-dione] | 36.8 ± 1.55% | > 300 µM | – | 17.9 ± 3.4% | – | 47.8 ± 2.45% | 7.97 ± 1.46% | – | –
COc1ccccc1C1[C@@]2(C(=O)N(c3ccccc3)N=C2C)[C@]12C(=O)N(c1ccccc1)N=C2C (relative stereo) [4f, (5R*,6R*)-11-(2-Methoxyphenyl)-4,10-dimethyl-2,8-diphenyl-2,3,8,9-tetraazadispiro[4.0.4.1]undeca-3,9-diene-1,7-dione] | 28.7 ± 0.29% | > 300 µM | – | 28.3 ± 2.56% | 2.79 ± 1.49% | – | 10.4 ± 3.28% | – | –
CC1=NN(c2ccccc2)C(=O)[C@@]12C(c1ccc([N+](=O)[O-])cc1)[C@@]21C(=O)N(c2ccccc2)N=C1C (relative stereo) [4k, (5R*,6R*)-11-(4-Nitrophenyl)-4,10-dimethyl-2,8-diphenyl-2,3,8,9-tetraazadispiro[4.0.4.1]undeca-3,9-diene-1,7-dione] | 67.6 ± 0.77% | 234 µM and < 300 µM | most significant | 46.7 ± 3.78% | – | 47.2 ± 1.36% | 26.7 ± 3.03% | 84 ± 9.46 µM | 83.18 ± 0.45 µM
COC(=O)c1ccc(C2[C@@]3(C(=O)N(c4ccccc4)N=C3C)[C@]23C(=O)N(c2ccccc2)N=C3C)cc1 (relative stereo) [4q, (5R*,6R*)-Methyl-4[4,10-dimethyl-2,8-diphenyl-2,3,8,9-tetraazadispiro[4.0.4.1]undeca-3,9-diene-1,7-dione-11-yl]benzoate] | 62.9 ± 1.53% | > 300 µM | did not show differences with respect to the control of DMSO | 50.5 ± 2.38% | 2.29 ± 2.6% | 31.7 ± 1.52% | 13 ± 1.99% | 102 ± 7.8 µM | 109 ± 2.77 µM
CC1=NN(c2ccccc2)C(=O)[C@@]12C(c1ccc(C(F)(F)F)cc1)[C@@]21C(=O)N(c2ccccc2)N=C1C (relative stereo) [4r, (5R*,6R*)-11-(4-Trifluoromethylphenyl)-4,10-dimethyl-2,8-diphenyl-2,3,8,9-tetraazadispiro[4.0.4.1]undeca-3,9-diene-1,7-dione] | 64.71 ± 0.52% | > 300 µM | – | 54.7 ± 1.95% | 4.74 ± 3.04% | 50.2 ± 0.52% | 28.6 ± 3.71% | 60.7 ± 9.95 µM | 49.8 ± 5.51 µM
CC1=NN(c2ccccc2)C(=O)[C@@]12C(c1ccc(OC(F)(F)F)cc1)[C@@]21C(=O)N(c2ccccc2)N=C1C (relative stereo) [4s, (5R*,6R*)-11-(4-Trifluoromethoxyphenyl)-4,10-dimethyl-2,8-diphenyl-2,3,8,9-tetraazadispiro[4.0.4.1]undeca-3,9-diene-1,7-dione] | 70.2% | > 300 µM | – | 49.7 ± 2.11% | – | 43.6 ± 1.75% | 24.4 ± 1.36% | 63.8 ± 6.48 µM | 70.3 ± 1.9 µM
CC1=NN(c2ccccc2)C(=O)[C@@]12C(c1cccc(F)c1)[C@@]21C(=O)N(c2ccccc2)N=C1C (relative stereo) [4t, (5R*,6R*)-11-(3-Fluorophenyl)-4,10-dimethyl-2,8-diphenyl-2,3,8,9-tetraazadispiro[4.0.4.1]undeca-3,9-diene-1,7-dione] | 47.6 ± 0.95% | > 300 µM | did not show differences with respect to the control of DMSO | 13.8 ± 2.87% | 5.08 ± 2.84% | 5.06 ± 2.43% | 3.43 ± 2.42% | – | –
CSc1ccc(C2[C@]3(C(=O)N(c4ccccc4)N=C3C)[C@@]23C(=O)N(c2ccccc2)N=C3C)cc1 (relative stereo) [4u, (5R*,6R*)-11-(4-Thiomethylphenyl)-4,10-dimethyl-2,8-diphenyl-2,3,8,9-tetraazadispiro[4.0.4.1]undeca-3,9-diene-1,7-dione] | 41 ± 1.49% | > 300 µM | did not show differences with respect to the control of DMSO | 38.7 ± 3.77% | 5.76 ± 3.65% | 34.7 ± 2.29% | 3.64 ± 1.81% | – | –
